Measured values from patent US10329289B2, “6,7-dihydro-5H-pyrrolo[3,4-B]pyridin-5-one allosteric modulators of the M4 muscarinic acetylcholine receptor” (Merck Sharp & Dohme Corp., priority 2015, dated 2019).

Target: T1, human M4 muscarinic acetylcholine receptor (Homo sapiens, UniProt P08173)
T1 construct: expressed in transfected cells; host or cells: CHO-K1
T1 sequence (P08173 1-479): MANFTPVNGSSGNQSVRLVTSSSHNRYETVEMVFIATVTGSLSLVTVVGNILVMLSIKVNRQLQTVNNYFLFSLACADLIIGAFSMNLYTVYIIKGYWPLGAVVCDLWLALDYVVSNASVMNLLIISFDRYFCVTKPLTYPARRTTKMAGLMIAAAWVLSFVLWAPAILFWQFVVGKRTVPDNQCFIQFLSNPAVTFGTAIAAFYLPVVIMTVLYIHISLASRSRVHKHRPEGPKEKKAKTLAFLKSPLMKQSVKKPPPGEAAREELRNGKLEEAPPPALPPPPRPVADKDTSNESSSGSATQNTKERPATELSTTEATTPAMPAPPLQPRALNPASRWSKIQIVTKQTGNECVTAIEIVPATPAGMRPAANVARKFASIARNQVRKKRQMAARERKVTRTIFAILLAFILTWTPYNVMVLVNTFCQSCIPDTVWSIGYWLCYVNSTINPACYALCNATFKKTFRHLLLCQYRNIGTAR
Test: human FLIPR-based M4 PAM assay (Ca2+ mobilization, CHO-K1 cells with human M4 receptor and Gαqi5)
Assay type: cell-based
Details: acetylcholine at 20% of maximum response, read-out: M4 PAM IP
In short: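 CHO-K1 cells stably expressing human M4 and chimeric Gαqi5 were dye-loaded ~1 h at 37 °C and read for Ca2+ fluorescence. Compound followed by acetylcholine at an EC20 (sometimes an EC70 third addition); inflection point from a 4-parameter logistic fit.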

Row | SMILES | EC50 [nM]
1 | Cc1c(N2CCC(Oc3ccc(F)cc3)CC2)nc2c(c1C)C(=O)N(C)[C@H]2CO [Example 354, (R)-2-(4-(4-fluorophenoxy)piperidin-1-yl)-7-(hydroxymethyl)-3,4,6-trimethyl-6,7-dihydro-5H-pyrrolo[3,4-b]pyridin-5-one] | 1470
2 | Cc1cc2c(nc1N1CCC(Oc3ccc4c(c3)OCC4)CC1)[C@@H](CO)N(C)C2=O [Example 355, (S)-2-(4-((2,3-dihydrobenzofuran-6-yl)oxy)piperidin-1-yl)-7-(hydroxymethyl)-3,6-dimethyl-6,7-dihydro-5H-pyrrolo[3,4-b]pyridin-5-one] | 16
3 | Cc1cc2c(nc1N1CCC(Oc3ccc4c(c3)OCC4)CC1)[C@H](CO)N(C)C2=O [Example 356, (R)-2-(4-((2,3-dihydrobenzofuran-6-yl)oxy)piperidin-1-yl)-7-(hydroxymethyl)-3,6-dimethyl-6,7-dihydro-5H-pyrrolo[3,4-b]pyridin-5-one] | 788
4 | Cc1cc2c(nc1N1CCC(Oc3cnn(C)c3)CC1)[C@@H](CO)N(C)C2=O [Example 357, (S)-7-(hydroxymethyl)-3,6-dimethyl-2-(4-((1-methyl-1H-pyrazol-4-yl)oxy)piperidin-1-yl)-6,7-dihydro-5H-pyrrolo[3,4-b]pyridin-5-one] | 87
5 | Cc1cc2c(nc1N1CCC(Oc3cnn(C)c3)CC1)[C@H](CO)N(C)C2=O [Example 358, (R)-7-(hydroxymethyl)-3,6-dimethyl-2-(4-((1-methyl-1H-pyrazol-4-yl)oxy)piperidin-1-yl)-6,7-dihydro-5H-pyrrolo[3,4-b]pyridin-5-one] | 8070
6 | Cc1cc2c(nc1N1CCC(Oc3ccc4c(cnn4C)c3)CC1)[C@@H](CO)N(C)C2=O [Example 359, (S)-7-(hydroxymethyl)-3,6-dimethyl-2-(4-((1-methyl-1H-indazol-5-yl)oxy)piperidin-1-yl)-6,7-dihydro-5H-pyrrolo[3,4-b]pyridin-5-one] | 37
7 | Cc1cc2c(nc1N1CCC(Oc3ccc4c(cnn4C)c3)CC1)[C@H](CO)N(C)C2=O [Example 360, (R)-7-(hydroxymethyl)-3,6-dimethyl-2-(4-((1-methyl-1H-indazol-5-yl)oxy)piperidin-1-yl)-6,7-dihydro-5H-pyrrolo[3,4-b]pyridin-5-one] | 1680
8 | CCc1cc2c(nc1N1CCC(Oc3ccc4c(c3)COCC4)CC1)[C@H](CO)N(C)C2=O [Example 362, (R)-3-ethyl-7-(hydroxymethyl)-2-(4-(isochroman-7-yloxy)piperidin-1-yl)-6-methyl-6,7-dihydro-5H-pyrrolo[3,4-b]pyridin-5-one] | 1290
9 | CCc1cc2c(nc1N1CCC(Oc3ccc4c(c3)OCC4)CC1)[C@@H](CO)N(C)C2=O [Example 365, (S)-2-(4-((2,3-dihydrobenzofuran-6-yl)oxy)piperidin-1-yl)-3-ethyl-7-(hydroxymethyl)-6-methyl-6,7-dihydro-5H-pyrrolo[3,4-b]pyridin-5-one] | 26
10 | CCc1cc2c(nc1N1CCC(Oc3ccc4c(c3)OCC4)CC1)[C@H](CO)N(C)C2=O [Example 366, (R)-2-(4-((2,3-dihydrobenzofuran-6-yl)oxy)piperidin-1-yl)-3-ethyl-7-(hydroxymethyl)-6-methyl-6,7-dihydro-5H-pyrrolo[3,4-b]pyridin-5-one] | 1240
11 | Cc1c(N2CCC(Oc3ccc4c(c3)CCOC4)CC2)nc2c(c1C)C(=O)N(C)[C@H]2CO [Example 370, (R)-7-(hydroxymethyl)-2-(4-(isochroman-6-yloxy)piperidin-1-yl)-3,4,6-trimethyl-6,7-dihydro-5H-pyrrolo[3,4-b]pyridin-5-one] | 1190
12 | Cc1cc2c(nc1N1CCC(Oc3ccc4c(cnn4CCO)c3)CC1)CNC2=O [Example 371, 2-(4-((1-(2-Hydroxyethyl)-1H-indazol-5-yl)oxy)piperidin-1-yl)-3-methyl-6,7-dihydro-5H-pyrrolo[3,4-b]pyridin-5-one] | 100
13 | Cc1cc2c(nc1N1CCC(Oc3ccc4c(c3)CC(=O)C4)CC1)CNC2=O [Example 373, 3-Methyl-2-(4-((2-oxo-2,3-dihydro-1H-inden-5-yl)oxy)piperidin-1-yl)-6,7-dihydro-5H-pyrrolo[3,4-b]pyridin-5-one] | 69

Continued by falling EC50, values first:

Row | EC50 [nM] | SMILES
14 | 3770 | CCc1cc2c(nc1N1CCC(Oc3ccc4c(cnn4C)c3)CC1)[C@H](CO)N(C)C2=O [Example 364, (R)-3-ethyl-7-(hydroxymethyl)-6-methyl-2-(4-((1-methyl-1H-indazol-5-yl)oxy)piperidin-1-yl)-6,7-dihydro-5H-pyrrolo[3,4-b]pyridin-5-one]
15 | 634 | C=Cc1c(C)c(N2CCC(Oc3ccc(OC)nc3)CC2)nc2c1C(=O)NC2 [Example 372, 2-(4-((6-Methoxypyridin-3-yl)oxy)piperidin-1-yl)-3-methyl-4-vinyl-6,7-dihydro-5H-pyrrolo[3,4-b]pyridin-5-one]
16 | 100 | CCc1cc2c(nc1N1CCC(Oc3ccc4c(cnn4C)c3)CC1)[C@@H](CO)N(C)C2=O [Example 363, (S)-3-ethyl-7-(hydroxymethyl)-6-methyl-2-(4-((1-methyl-1H-indazol-5-yl)oxy)piperidin-1-yl)-6,7-dihydro-5H-pyrrolo[3,4-b]pyridin-5-one]
17 | 85 | CCc1cc2c(nc1N1CCC(Oc3ccc4c(c3)COCC4)CC1)[C@@H](CO)N(C)C2=O [Example 361, (S)-3-ethyl-7-(hydroxymethyl)-2-(4-(isochroman-7-yloxy)piperidin-1-yl)-6-methyl-6,7-dihydro-5H-pyrrolo[3,4-b]pyridin-5-one]
18 | 69 | COc1ccc(OC2CCN(c3nc4c(cc3C)C(=O)N(CCO)C4CO)CC2)cn1 (stereo not shown) [Example 375, 6-(2-Hydroxyethyl)-7-(hydroxymethyl)-2-(4-((6-methoxypyridin-3-yl)oxy)piperidin-1-yl)-3-methyl-6,7-dihydro-5H-pyrrolo[3,4-b]pyridin-5-one]
19 | 57 | Cc1c(N2CCC(Oc3ccc4c(c3)CCOC4)CC2)nc2c(c1C)C(=O)N(C)[C@@H]2CO [Example 369, (S)-7-(hydroxymethyl)-2-(4-(isochroman-6-yloxy)piperidin-1-yl)-3,4,6-trimethyl-6,7-dihydro-5H-pyrrolo[3,4-b]pyridin-5-one]
